Data published in US4734416A, “Pharmaceutically useful carbostyril derivatives” (Otsuka Pharmaceutical Co., Ltd., priority 1978, dated 1988).
Structures can show the parent of a compound that is named as a salt.

Tests used:
[1] = target: T1, enucleated ileum of a guinea pig (Cavia porcellus, UniProt P31389); experiment: Antihistamine activity test in vitro (enucleated guinea pig ileum, histamine retraction, pA2 by Van Rossam method); settings: 10^-6 g/ml test compound, 5 minutes before histamine, 36° C.
T1 construct: the tissue of ileum is cut to a length of 2.5 to 3.0 cm and suspended in an organ bath; from tissue; host or cells: isolated ileum from the ileocecal region of male guinea pig
T1 sequence (P31389 whole entry): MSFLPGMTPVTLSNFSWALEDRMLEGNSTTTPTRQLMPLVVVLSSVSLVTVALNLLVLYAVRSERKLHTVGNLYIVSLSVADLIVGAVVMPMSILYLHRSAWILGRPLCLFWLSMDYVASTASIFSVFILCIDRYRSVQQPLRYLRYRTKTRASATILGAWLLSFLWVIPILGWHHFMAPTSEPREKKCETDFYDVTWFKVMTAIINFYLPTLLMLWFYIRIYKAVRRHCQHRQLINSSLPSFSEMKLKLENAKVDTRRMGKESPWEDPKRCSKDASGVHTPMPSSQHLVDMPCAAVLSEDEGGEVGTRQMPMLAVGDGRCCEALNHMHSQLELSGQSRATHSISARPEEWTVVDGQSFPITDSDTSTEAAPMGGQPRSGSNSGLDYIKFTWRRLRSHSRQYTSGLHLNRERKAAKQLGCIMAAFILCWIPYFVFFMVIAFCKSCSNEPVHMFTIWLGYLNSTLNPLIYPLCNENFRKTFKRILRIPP
Protocol: As to the test method for determining antihistamine activity of a compound in vitro, a method of using an enucleated ileum of a guinea pig is generally accepted.
A male guinea pig having 300 to 500 g body weight is killed by blood letting. An ileum having a length of 15 cm being enculeated from the ileocecal region is dipped into Tyrode's solution (which is prepared from […], 0.2 g of KCl, 0.2 g of CaCl2, 1.0 g of glucose, 1.0 g of NaHCO3, 0.065 g of NaHPO4.2H2 O and 0.2135 g of MgCl2.6H2 O to make 1000 ml in total volume by adding water). Then the tissue of ileum is cut to a length of 2.5 to 3.0 cm and suspended in an organ bath filled with 30 ml of Tyrode's solution. The organ bath is kept at a temperature of 36° C. and a mixed gas consisting of 5% of CO2 and 95% of O2 is blown into the bath. 10 Minutes after the blowing, 10^-6 M of histamine is added to the bath to examine the sensitivity of the tissue and a reaction curve (control) with respect to the dosage of histamine is obtained. After the dosage of histamine-reaction curve (control) becomes constant, 10^-6 g/ml of a compound to be tested is added to the bath and further histamine is added 5 minutes later to obtain a dosage-reaction curve. Retraction of the ileum is recorded on a pen-recorder through an isotonic transducer [TD-112S manufactured by Nihon Koden]. Antihistamine activity of the test compound is determined as pA2 value by the "Van Rossam" method [J. M. Van Rossam; Arch. Inst. Pharmacodyn., 143, 299 (1963)] wherein the maximum retraction of ileum caused by histamine shown in the control curve is 100%.

[2] = Halothane anesthesia increasing activity (righting reflex); assay type: in vivo, mouse (male, ddy-strain); settings: oral; for Time (minutes) between introduction of anesthesia and waking: 8 mg/kg, 1 hour before 4% Halothane
Protocol: Male mice of ddy-strain having about 20 g body weight are used. One test group consists of 10 mice. An aqueous Gummi Arabicum suspension of test compound (80 mg of a compound to be tested and 1 g of Gummi Arabicum/100 ml of physiological NaCl solution) is administered orally to each mouse at the dosage of 8 mg of test compound/kg body. One hour after the administration, each mouse is placed in a gas respiration chamber (13×13×24 cm) and oxygen gas containing 4% of Halothane [2-bromo-2-chloro-1,1,1-trifluoroethane] is blown into the chamber at the velocity of 2 l/min for 3 minutes. A mouse anaesthetized is taken out from the chamber and the time between the introduction of anesthesia to waking is measured by righting reflex as the index. To mice of the control group, 1% Gummi Arabicum aqueous physiological solution is orally administered at the dosage of 0.1 ml/10 g body. [Reference: M. J. Turnbull and J. W. Watkins: Br. J. Pharmac., 58, 27-35 (1976)]
Same procedures as mentioned in (II)-(A) are employed, except that the amount of test compound to be orally administered is changed in 4 steps at the dosage of 0.5 mg/kg, 1 mg/kg, 2 mg/kg and 4 mg/kg respectively to measure the relationship between the dosage and degree of strength of anesthesia increasing activity.

[3] = Activity for inhibiting fighting behavior of mouse isolated singly for a long period of time; assay type: in vivo, mouse (male, ddy-strain); settings: positive if fighting no longer than 5 seconds in a minute, range in parentheses, read-out: ED50 (inhibition of fighting behavior)
Protocol: Individual male mice of ddy-strain having 15 to 20 g of body weight are breeded separately in respective cages for 1 month. One test group consists of 10 pairs of mice. The pairs of mice are selected so that when one mouse is taken into the home cage of another, the two mice fight together continuously for over 30 seconds. ED50 values are calculated by administering the respective test compounds to each test groups of mice. Activity for inhibiting fighting behavior of the test compound is determined as positive in case the administered mice only continue the fighting for no longer than 5 seconds in a minute. When the mice continue the fighting over 5 seconds they are forced to separate for the purpose of reducing the number of injured mice. [Reference: C. Y. Yen, R. L. Stanger and N. Millman: Arch. Int. Pharmacodyn., 123, 179 (1959)]

in vivo = settings: mouse
Protocol: Mice of ddy-strain having 20-22 g of body weight are used. One test group consists of 10 mice.
Oral administration: Compound to be tested is suspended in 1% Gummi Arabicum physiological NaCl aqueous solution.
Intravenuous administration: Compound to be tested is dissolved in 50% propyleneglycol aqueous solution.

[4] = Analgetic activity (acetic acid writhing); assay type: in vivo, mouse (male, ddy-strain); settings: Mus musculus, 50 min; oral, 50 minutes before acetic acid i.p.; range in parentheses; read-out: ED50 (analgetic activity)
Protocol: Male mice of ddy-strain having 15-23 g of body weight are used. One test group consists of 10 mice. The compound to be tested is administered orally by procedures similar to the method mentioned in (II). Fifty minutes after the administration, 0.1 ml of 0.6% acetic acid aqueous solution/10 g body weight is injected intraperitoneally. In case of the mice administered orally with the reference compound (Haloperidol), the injection is made 110 minutes after the administration. The number of writhings shown after 10 minutes is counted for 10 minutes and the ED50 value of respective compounds is calculated in comparison with the number of writhings shown by control group. [Reference: R. Koster, M. Anderson and E. I. Debeer: Fed. Proc., 18, 412, (1959)]

[5] = Hexabarbital sleep increasing activity (righting reflex); assay type: in vivo, mouse (male, ddy-strain); settings: oral, Hexabarbital Na 70 mg/kg i.p.
Protocol: Male mice of ddy-strain having 20 to 25 g body weight are starved for 24 hours. One test group consists of 10 mice. An aqueous Gummi Arabicum suspension of test compound (0.05 g of test compound and 1 g of Gummi Arabicum/100 ml of physiological NaCl solution) is administered orally at the dosage mentioned in the Table 4. One hour after the administration 0.7% of Hexabarbitol.Na-salt is intraperitonerally administered at the dosage of 70 mg/kg body weight. The time between the introduction of sleep to waking is measured by righting reflex as the index. [Reference: A. M. Hjort, De E. J. Beer and D. W. Fassett; J. Pharmac., Exptl.

Row | Compound | Kb [1] [nM] | Time (minutes) between introduction of anesthesia and waking [2] [min] | ED50 [3] [mg/kg] | LD50 (in vivo; iv, female mice) [mg/kg] | LD50 (in vivo; iv, male mice) [mg/kg] | LD50 (in vivo; po, female mice) [mg/kg] | LD50 (in vivo; po, male mice) [mg/kg] | other results
1 | O=C1CCc2ccc(OCCCN3CCN(c4cccc(Cl)c4)CC3)cc2N1 [Compound 39, 7-{3-[4-(3-Chlorophenyl)piperazinyl]propoxy}-3,4-dihydrocarbostyril] | 0.182 | 5.0 ± 2.9 | 0.96 | 293 | 310 | 1100 | 1210 | –
2 | CN1C(=O)CCc2c(OCC(O)CN3CCN(c4ccccc4)CC3)cccc21 (centres unmarked) [Compound 7, 1-Methyl-5-[2-hydroxy-3-(4-phenylpiperazinyl)propoxy]-3,4-dihydrocarbostyril monohydrochloride] | 0.132 | 8.9 ± 2.4 | – | 432 | 424 | 1650 | 1600 | Anesthesia increasing activity ([2]; 0.5 mg/kg): 5.3 ± 2.5 min; Anesthesia increasing activity ([2]; 1 mg/kg): 7.4 ± 3.1 min; Anesthesia increasing activity ([2]; 2 mg/kg): 9.5 ± 3.8 min; Anesthesia increasing activity ([2]; 4 mg/kg): 13.7 ± 4.7 min
3 | O=C1CCc2c(cccc2OCCCN2CCCN(c3ccccc3)CC2)N1 [Compound 31, 5-[3-(4-Phenylhomopiperazinyl)propoxy]-3,4-dihydrocarbostyril] | 0.263 | 8.2 ± 3.9 | – | 248 | 256 | 923 | 870 | ED50 [4]: 1.92 mg/kg
4 | CN1C(=O)CN=C(c2ccccc2)c2cc(Cl)ccc21 [Diazepam, reference compound] | – | – | 7.29 | – | – | – | – | –
5 | COc1ccccc1N1CCN(CCCOc2ccc3c(c2)NC(=O)CC3)CC1 [Compound 17, 7-{3-[4-(2-Methoxyphenyl)piperazinyl]propoxy}-3,4-dihydrocarbostyril] | 0.871 | 13.6 ± 5.2 | 0.92 | 216 | 218 | 860 | 898 | Sleep time (min.) [Mean ± SD] ([5]; 0.125 mg/kg): 39.51 ± 8.45 min; Sleep time (min.) [Mean ± SD] ([5]; 0.25 mg/kg): 45.57 ± 10.05 min; Sleep time (min.) [Mean ± SD] ([5]; 0.5 mg/kg): 51.77 ± 6.60 min; Sleep time (min.) [Mean ± SD] ([5]; 1.0 mg/kg): 56.92 ± 6.13 min
6 | O=C1CCc2c(OCC(O)CN3CCN(c4ccc(Cl)cc4)CC3)ccc(Cl)c2N1 (centres unmarked) [Compound 3, 8-Chloro-5-{2-hydroxy-3-[4-(4-chlorophenyl)piperazinyl]propoxy}-3,4-dihydrocarbostyril monohydrochloride] | 4.9 | 7.9 ± 3.4 | – | – | – | – | – | –
7 | C=CCN1C(=O)CCc2c(OCC(O)CN3CCN(c4ccc(C)cc4)CC3)cccc21 (centres unmarked) [Compound 11, 1-Allyl-5-{2-hydroxy-3-[4-(4-methylphenyl)piperazinyl]propoxy}-3,4-dihydrocarbostyril] | 0.617 | 6.8 ± 2.2 | – | – | – | – | – | –
8 | CN1C(=O)CCc2c(OCCCN3CCN(c4ccccc4)CC3)cccc21 [Compound 9, 1-Methyl-5-[3-(4-phenylpiperazinyl)propoxy]-3,4-dihydrocarbostyril monohydrochloride] | 0.0263 | 9.5 ± 3.2 | 1.52 | – | – | – | – | –
9 | O=C1CCc2ccc(OCCCN3CCN(CCO)CC3)cc2N1 [Compound 33, 7-{3-[4-(2-Hydroxyethyl)piperazinyl]propoxy}-3,4-dihydrocarbostyril] | 95.5 | 7.4 ± 2.6 | – | – | – | – | – | –
10 | O=C1CCc2c(cccc2OCCCN2CCN(c3ccccc3)CC2)N1 [Compound 5, 5-[3-(4-Phenylpiperazinyl)propoxy]-3,4-dihydrocarbostyril dihydrochloride] | 1.35 | 16.9 ± 7.9 | 1.28 | – | – | – | – | Anesthesia increasing activity ([2]; 0.5 mg/kg): 5.2 ± 2.1 min; Anesthesia increasing activity ([2]; 1 mg/kg): 8.5 ± 3.5 min; Anesthesia increasing activity ([2]; 2 mg/kg): 9.6 ± 4.1 min; Anesthesia increasing activity ([2]; 4 mg/kg): 12.7 ± 3.9 min
11 | Cc1ccc(N2CCN(CCCOc3ccc4c(c3)NC(=O)CC4)CC2)cc1 [Compound 15, 7-{3-[4-(4-Methylphenyl)piperazinyl]propoxy}-3,4-dihydrocarbostyril] | 0.331 | 12.7 ± 3.5 | – | – | – | – | – | –
12 | COc1cc(N2CCN(CCCOc3ccc4c(c3)NC(=O)CC4)CC2)cc(OC)c1OC [Compound 29, 7-{3-[4-(3,4,5-Trimethoxyphenyl)piperazinyl]propoxy}-3,4-dihydrocarbostyril dihydrochloride] | 2.69 | 9.3 ± 4.4 | – | – | – | – | – | Anesthesia increasing activity ([2]; 0.5 mg/kg): 5.6 ± 2.8 min; Anesthesia increasing activity ([2]; 1 mg/kg): 6.6 ± 3.1 min; Anesthesia increasing activity ([2]; 2 mg/kg): 8.3 ± 3.7 min; Anesthesia increasing activity ([2]; 4 mg/kg): 13.6 ± 4.9 min
13 | O=c1cc(OCCCN2CCN(c3ccccc3)CC2)c2ccccc2[nH]1 [Compound 26, 4-[3-(4-Phenylpiperazinyl)propoxy]carbostyril] | 2.19 | 8.5 ± 3.7 | – | – | – | – | – | –
